Assay results from publication PMC3961306, “Comparison of the Cancer Gene Targeting and Biochemical Selectivities of All Targeted Kinase Inhibitors Approved for Clinical Use” (PLoS ONE, 2014).

Tests used:
Assay in all cases: Kinase profiling in a biochemical assay panel (mobility shift assays and ELISA), %-inhibition at 1 μM; selectivity entropy
[1] = target: panel of more than 300 wild-type and mutant kinases (313 kinase panel) (Homo sapiens, UniProt Q9H0K1); details: kinase QIK; 1 μM
[2] = target: T1, panel of more than 300 wild-type and mutant kinases (313 kinase panel) (Homo sapiens, UniProt O14733)
T1 sequence (O14733 1-419): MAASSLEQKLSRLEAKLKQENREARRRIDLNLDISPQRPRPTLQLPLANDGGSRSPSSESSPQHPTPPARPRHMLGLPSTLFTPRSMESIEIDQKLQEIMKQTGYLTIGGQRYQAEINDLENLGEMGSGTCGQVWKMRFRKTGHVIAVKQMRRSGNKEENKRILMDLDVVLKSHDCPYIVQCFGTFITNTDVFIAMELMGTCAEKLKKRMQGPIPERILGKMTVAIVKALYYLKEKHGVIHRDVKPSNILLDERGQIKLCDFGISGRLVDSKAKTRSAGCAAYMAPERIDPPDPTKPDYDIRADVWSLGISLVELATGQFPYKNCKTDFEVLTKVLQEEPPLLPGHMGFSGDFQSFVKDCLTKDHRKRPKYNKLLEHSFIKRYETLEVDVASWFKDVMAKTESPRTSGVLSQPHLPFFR

[3] = target: panel of more than 300 wild-type and mutant kinases (313 kinase panel) (Homo sapiens, UniProt Q00535); details: kinase CDK5/p25; 1 μM compound
[4] = target: panel of more than 300 wild-type and mutant kinases (313 kinase panel) (Homo sapiens, UniProt P53779); details: kinase JNK3; compound at 1 μM
[5] = target: panel of more than 300 wild-type and mutant kinases (313 kinase panel) (Homo sapiens, UniProt P42336); details: kinase PIK3CA/PIK3R1; 1 μM
[6] = target: panel of more than 300 wild-type and mutant kinases (313 kinase panel) (Homo sapiens, UniProt Q16816)
[7] = target: panel of more than 300 wild-type and mutant kinases (313 kinase panel) (Homo sapiens, UniProt P78362); details: kinase SRPK2; 1 μM
[8] = target: panel of more than 300 wild-type and mutant kinases (313 kinase panel) (Homo sapiens, UniProt Q02779); details: kinase MLK2; 1 μM
[9] = target: panel of more than 300 wild-type and mutant kinases (313 kinase panel) (Homo sapiens, UniProt P51812); details: kinase RSK2; 1 μM
[10] = target: panel of more than 300 wild-type and mutant kinases (313 kinase panel) (Homo sapiens, UniProt Q9Y5S2); details: kinase MRCKβ; 1 μM
[11] = target: T2, panel of more than 300 wild-type and mutant kinases (313 kinase panel) (Homo sapiens, UniProt Q9HBY8); details: kinase SGK2; 1 μM
T2 sequence (Q9HBY8 1-367): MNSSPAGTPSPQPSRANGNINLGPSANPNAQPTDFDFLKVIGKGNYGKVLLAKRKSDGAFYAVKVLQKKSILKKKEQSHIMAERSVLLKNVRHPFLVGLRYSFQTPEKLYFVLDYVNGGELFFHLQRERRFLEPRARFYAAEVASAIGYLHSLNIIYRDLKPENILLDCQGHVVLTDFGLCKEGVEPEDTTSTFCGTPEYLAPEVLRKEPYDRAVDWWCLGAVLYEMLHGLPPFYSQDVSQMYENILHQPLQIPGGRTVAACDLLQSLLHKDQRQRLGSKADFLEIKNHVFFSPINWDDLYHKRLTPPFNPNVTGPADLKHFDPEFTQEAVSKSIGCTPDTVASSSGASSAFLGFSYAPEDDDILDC

[12] = target: T3, panel of more than 300 wild-type and mutant kinases (313 kinase panel) (Homo sapiens, UniProt O00141); details: kinase SGK; 1 μM
T3 sequence (O00141 1-431): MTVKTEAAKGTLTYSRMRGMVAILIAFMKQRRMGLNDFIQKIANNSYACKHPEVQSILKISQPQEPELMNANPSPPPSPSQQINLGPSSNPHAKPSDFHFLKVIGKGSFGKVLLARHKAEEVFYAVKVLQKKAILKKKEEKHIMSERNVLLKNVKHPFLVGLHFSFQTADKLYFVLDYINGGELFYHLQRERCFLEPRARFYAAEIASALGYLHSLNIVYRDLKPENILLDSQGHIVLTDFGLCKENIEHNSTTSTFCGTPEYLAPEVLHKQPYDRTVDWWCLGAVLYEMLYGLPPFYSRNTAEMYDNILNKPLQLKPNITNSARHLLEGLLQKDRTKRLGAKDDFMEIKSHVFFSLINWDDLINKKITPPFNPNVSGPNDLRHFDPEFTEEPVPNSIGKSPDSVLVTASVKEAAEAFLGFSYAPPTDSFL

[13] = kinase MAP2K7, compound at 1 μM

panel of more than 300 wild-type and mutant kinases (313 kinase panel) (Homo sapiens, UniProt Q02779), sequence (Q02779 whole entry, change not shown): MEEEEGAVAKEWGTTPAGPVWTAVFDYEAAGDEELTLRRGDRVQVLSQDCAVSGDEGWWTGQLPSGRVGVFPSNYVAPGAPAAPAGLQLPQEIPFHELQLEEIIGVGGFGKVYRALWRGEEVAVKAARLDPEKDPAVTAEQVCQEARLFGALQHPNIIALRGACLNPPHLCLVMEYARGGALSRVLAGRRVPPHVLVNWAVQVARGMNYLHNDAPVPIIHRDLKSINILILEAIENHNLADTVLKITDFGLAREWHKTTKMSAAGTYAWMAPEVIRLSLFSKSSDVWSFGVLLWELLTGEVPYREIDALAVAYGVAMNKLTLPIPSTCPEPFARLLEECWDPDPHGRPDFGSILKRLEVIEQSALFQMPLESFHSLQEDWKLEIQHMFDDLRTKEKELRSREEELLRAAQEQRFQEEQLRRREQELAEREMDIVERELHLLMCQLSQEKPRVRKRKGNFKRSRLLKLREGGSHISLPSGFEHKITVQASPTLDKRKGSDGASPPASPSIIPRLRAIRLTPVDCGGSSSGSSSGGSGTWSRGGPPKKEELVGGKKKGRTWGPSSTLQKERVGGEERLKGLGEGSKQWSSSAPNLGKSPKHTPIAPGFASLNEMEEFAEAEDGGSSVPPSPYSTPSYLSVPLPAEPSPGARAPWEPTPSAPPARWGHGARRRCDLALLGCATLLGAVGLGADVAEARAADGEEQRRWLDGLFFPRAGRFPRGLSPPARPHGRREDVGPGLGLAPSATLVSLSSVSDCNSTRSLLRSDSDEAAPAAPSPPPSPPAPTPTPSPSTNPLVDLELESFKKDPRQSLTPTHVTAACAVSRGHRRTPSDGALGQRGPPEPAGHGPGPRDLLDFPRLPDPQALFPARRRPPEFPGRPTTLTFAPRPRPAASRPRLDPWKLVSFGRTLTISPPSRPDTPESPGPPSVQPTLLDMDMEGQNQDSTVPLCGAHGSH
panel of more than 300 wild-type and mutant kinases (313 kinase panel) (Homo sapiens, UniProt P53779), sequence (P53779 whole entry, change not shown): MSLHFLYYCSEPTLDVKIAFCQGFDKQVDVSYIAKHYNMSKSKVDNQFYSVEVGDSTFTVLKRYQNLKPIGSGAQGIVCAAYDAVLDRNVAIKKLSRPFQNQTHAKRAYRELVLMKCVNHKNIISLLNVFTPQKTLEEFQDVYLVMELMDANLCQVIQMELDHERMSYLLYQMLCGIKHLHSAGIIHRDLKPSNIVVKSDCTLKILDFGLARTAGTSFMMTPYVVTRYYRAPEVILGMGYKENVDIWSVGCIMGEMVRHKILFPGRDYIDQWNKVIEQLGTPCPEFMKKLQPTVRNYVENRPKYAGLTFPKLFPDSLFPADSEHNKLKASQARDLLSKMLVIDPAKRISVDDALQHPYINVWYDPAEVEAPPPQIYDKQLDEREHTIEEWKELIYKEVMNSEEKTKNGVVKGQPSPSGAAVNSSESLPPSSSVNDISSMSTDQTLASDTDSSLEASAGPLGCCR
panel of more than 300 wild-type and mutant kinases (313 kinase panel) (Homo sapiens, UniProt Q9H0K1), sequence (Q9H0K1 whole entry, change not shown): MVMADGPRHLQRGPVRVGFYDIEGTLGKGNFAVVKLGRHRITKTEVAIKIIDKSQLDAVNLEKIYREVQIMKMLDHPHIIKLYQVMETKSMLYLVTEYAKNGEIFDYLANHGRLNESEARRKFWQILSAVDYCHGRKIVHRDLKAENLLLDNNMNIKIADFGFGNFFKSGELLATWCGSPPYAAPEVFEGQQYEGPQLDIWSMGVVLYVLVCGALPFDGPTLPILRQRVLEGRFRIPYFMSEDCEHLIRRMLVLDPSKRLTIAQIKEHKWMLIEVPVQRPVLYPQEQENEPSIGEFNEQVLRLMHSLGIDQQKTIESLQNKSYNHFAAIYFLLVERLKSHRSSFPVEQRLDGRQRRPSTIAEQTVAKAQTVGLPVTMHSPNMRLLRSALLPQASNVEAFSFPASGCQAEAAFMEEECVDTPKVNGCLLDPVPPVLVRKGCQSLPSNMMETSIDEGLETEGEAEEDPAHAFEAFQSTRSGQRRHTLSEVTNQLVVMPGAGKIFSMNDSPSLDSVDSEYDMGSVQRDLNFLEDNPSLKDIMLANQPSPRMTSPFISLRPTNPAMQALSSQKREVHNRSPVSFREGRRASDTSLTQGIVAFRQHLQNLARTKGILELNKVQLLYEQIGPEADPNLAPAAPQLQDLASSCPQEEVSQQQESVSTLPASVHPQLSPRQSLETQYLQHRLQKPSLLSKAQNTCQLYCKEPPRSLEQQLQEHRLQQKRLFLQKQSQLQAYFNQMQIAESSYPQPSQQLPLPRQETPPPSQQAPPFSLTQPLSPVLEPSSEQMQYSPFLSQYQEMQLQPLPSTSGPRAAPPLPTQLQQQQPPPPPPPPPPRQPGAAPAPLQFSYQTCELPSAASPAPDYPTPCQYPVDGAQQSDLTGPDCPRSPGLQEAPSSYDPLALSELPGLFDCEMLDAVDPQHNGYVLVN
panel of more than 300 wild-type and mutant kinases (313 kinase panel) (Homo sapiens, UniProt Q00535), sequence (Q00535 whole entry, change not shown): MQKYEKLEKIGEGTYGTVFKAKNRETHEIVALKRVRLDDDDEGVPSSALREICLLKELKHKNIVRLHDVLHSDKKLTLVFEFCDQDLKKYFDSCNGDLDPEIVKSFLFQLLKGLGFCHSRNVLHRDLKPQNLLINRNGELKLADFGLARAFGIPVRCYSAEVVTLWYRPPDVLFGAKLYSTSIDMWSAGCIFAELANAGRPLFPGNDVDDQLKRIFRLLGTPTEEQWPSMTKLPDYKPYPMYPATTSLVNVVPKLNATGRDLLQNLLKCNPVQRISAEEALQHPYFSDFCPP
panel of more than 300 wild-type and mutant kinases (313 kinase panel) (Homo sapiens, UniProt Q16816), sequence (Q16816 whole entry, change not shown): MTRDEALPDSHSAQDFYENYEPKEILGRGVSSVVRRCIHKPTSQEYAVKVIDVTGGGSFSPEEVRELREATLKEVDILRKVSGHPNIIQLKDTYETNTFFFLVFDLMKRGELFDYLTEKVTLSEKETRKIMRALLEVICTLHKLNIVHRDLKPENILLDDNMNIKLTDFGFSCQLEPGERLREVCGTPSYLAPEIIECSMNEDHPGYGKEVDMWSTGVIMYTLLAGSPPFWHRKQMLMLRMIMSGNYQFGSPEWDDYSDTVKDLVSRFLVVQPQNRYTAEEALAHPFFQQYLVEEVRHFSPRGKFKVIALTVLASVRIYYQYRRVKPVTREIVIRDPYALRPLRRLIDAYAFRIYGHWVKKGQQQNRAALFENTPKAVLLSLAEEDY

| SMILES | %-inhibition of QIK [1] [%] | %-inhibition of MAP2K7 [2, 13] [%] | %-inhibition, CDK5/p25 [3] [%] | %-inhibition of JNK3 [4] [%] | %-inhibition of PIK3CA/PIK3R1 [5] [%] | %-inhibition of PHKG1 ([6]; kinase PHKG1, 1 μM) [%] | %-inhibition of SRPK2 [7] [%] | %-inhibition of MLK2 [8] [%] | %-inhibition of RSK2 [9] [%] | %-inhibition of MRCKβ [10] [%] | %-inhibition of SGK2 [11] [%] | %-inhibition of SGK [12] [%] | %-inhibition of MAP2K7 ([2]; 1 µM) [%] | %-inhibition of PHKG1 ([6]; 1 µM) [%] |
| --- | --- | --- | --- | --- | --- | --- | --- | --- | --- | --- | --- | --- | --- | --- |
| Cc1cn(-c2cc(NC(=O)c3ccc(C)c(Nc4nccc(-c5cccnc5)n4)c3)cc(C(F)(F)F)c2)cn1 [nilotinib] | -36 | -24 | 0.83 | 39 | 16 | -8 | -0.605 | -1.7 | 13 | -10 | 24 | 9 |  |  |
| CNC(=O)c1cc(Oc2ccc(NC(=O)Nc3ccc(Cl)c(C(F)(F)F)c3)c(F)c2)ccn1 [regorafenib] | -5.63 | -2.53 | -19 | 5 | 41 | 8 | 5 | 0.795 | 6.66 | -17 | 1 | -5.37 |  |  |
| N#CC[C@H](C1CCCC1)n1cc(-c2ncnc3[nH]ccc23)cn1 [ruxolitinib] | 35 |  | -16 | -3 | 42 |  | 9 | 22 | 9 | 20 | -1.48 | -2.44 | 4 | 50 |
| CO[C@H]1C[C@@H]2CC[C@@H](C)[C@@](O)(O2)C(=O)C(=O)N2CCCC[C@H]2C(=O)O[C@H]([C@H](C)C[C@@H]2CC[C@@H](OC(=O)C(C)(CO)CO)[C@H](OC)C2)CC(=O)[C@H](C)/C=C(\C)[C@@H](O)[C@@H](OC)C(=O)[C@H](C)C[C@H](C)/C=C/C=C/C=C/1C [temsirolimus] | -3 | 10 | -22 | -1.22 | 22 | 1.57 | -3.79 | 9 | -2.74 | -4 | -2.66 | -3.17 |  |  |
| CC(=O)Nc1cccc(-n2c(=O)n(C3CC3)c(=O)c3c(Nc4ccc(I)cc4F)n(C)c(=O)c(C)c32)c1 [trametinib] | -4.66 | -2.32 | 19 | -2.37 | 0.26 | -2.24 | -0.868 | 5 | -1.76 | -2.56 | -7 | 0.217 |  |  |
| COc1cc2c(Nc3ccc(Br)cc3F)ncnc2cc1OCC1CCN(C)CC1 [vandetanib] | 95 | 5.36 | -25 | -0.407 | 23 | 68 | -9 | 12 | 5.7 | -16 | -2 | -4.51 |  |  |
| CCCS(=O)(=O)Nc1ccc(F)c(C(=O)c2c[nH]c3ncc(-c4ccc(Cl)cc4)cc23)c1F [vemurafenib] | 6 | 1.65 | 5 | 2.85 | 24 | -0.913 | -2.2 | 5 | -2.31 | -5 | 2.66 | -0.122 |  |  |
